According to PMC12040169 (PLOS Biology, 2025):

assay: in vitro; conditions: human, hela cells, % viability

Structure (SMILES)	viability at 28.5 h, 10 µM
O=C(CSc1nc(=O)cc(O)[nH]1)c1ccccc1 [CBK026570]	96.7%
CC(SCCc1ccccn1)C(=O)O (centres unmarked) [CBK026572]	109%
CCCCCc1nc(N)c(-c2cccc(Br)c2)c(C#N)c1CCCC [CBK026574]	118%
Cc1ccc(C(C)C)c(OCC(O)CNC(C)C)c1 (centres unmarked) [CBK026604C]	111%
CC(Sc1ccccc1)C(=O)NC(C)(C)C (centres unmarked) [CBK026610]	116%
CC1CCCC(C)N1C(=O)C1CCCCC1C(=O)O (centres unmarked) [CBK026624]	93.2%
C=C(C)Cn1c(SCCC(=O)OC)nc2sc3c(c2c1=O)CC(C)(C)OC3 [CBK026634]	59.9%
CC(=O)Nc1nc(NC(C)=O)n2c(-c3ccccc3)nnc2n1 [CBK026649]	93.7%
CC1CN(C(=O)NC2CCCCC2)C(c2ccccc2)ON1C (centres unmarked) [CBK026650]	109%
CCc1nnc(NS(=O)(=O)c2ccc(OC(F)(F)F)cc2)s1 [CBK026672]	91.7%
Cc1nnc(NS(=O)(=O)c2ccc(OC(F)(F)F)cc2)s1 [CBK026673]	95.9%
COC(=O)c1c(NS(=O)(=O)c2cccc(Cl)c2)csc1C [CBK026678]	79.6%
COC(=O)c1scc(NS(=O)(=O)c2cccc(C(F)(F)F)c2)c1C(=O)OC [CBK026680]	94.9%
CC(C)Cc1csc2nc(-c3ccc(Br)cc3)oc(=O)c12 [CBK026692]	96.7%
S=c1nc(-c2ccccc2)n2cc(Br)ccc2n1 [CBK026696]	111%
O=C(CCOc1ccccc1)Nc1cncc(OC2CCNCC2)n1 [CBK026734T]	95.2%
CSc1nc(NC(=O)C(C)c2ccccc2)cc(N2CCNCC2)n1 (centres unmarked) [CBK026742T]	91.2%
C[C@@H]1CNCCN1c1cc(C(F)(F)F)cc(OCc2ccccc2)n1 [CBK026755]	79.1%
COc1ccccc1CN(CC(C)(C)CN)C(=O)Nc1ccc(C)c([N+](=O)[O-])c1 [CBK026816C]	98.8%
CC(C)(CN)CN(Cc1ccccc1C(F)(F)F)C(=O)Nc1c(F)cccc1F [CBK026822C]	109%
CC(C)(CN)CN(Cc1ccccc1C(F)(F)F)C(=O)Nc1ccc(C(C)(C)C)cc1 [CBK026828C]	92.4%
Cc1ccc(SCS(=O)(=O)c2ccc(C)cc2)cc1 [CBK026853]	97.8%
Clc1ccccc1CSc1nc[nH]n1 [CBK026950]	98.5%
CCCCSc1nnc(-c2ccc(Br)cc2)o1 [CBK027012]	117%
O=C(CSc1ncn(-c2ccccc2)n1)c1ccc(Br)cc1 [CBK027014]	91.6%
c1ccc2sc(-n3cncn3)nc2c1 [CBK027022]	92.2%

Structure (SMILES)	viability at 28.5 h, 10 µM
CCN(CC(=O)N1CCN(C(=O)c2ccc(C)cc2)CC1)C(=O)OC [CBK027051]	82%
CC(=O)Nc1cccc2c1NSN2 [CBK027082]	92.1%
CCCCNC(=O)NC1CCCC1 [CBK027084]	101%
CC(NC(=O)C1CC=CCC1C(=O)O)C1CC2CCC1C2 (centres unmarked) [CBK027112]	114%
COc1cccc(OCC(O)CN(C)S(=O)(=O)O)c1 (centres unmarked) [CBK027121N]	89.9%
CNCCc1ccccc1Sc1ccccc1 [CBK027155G]	102%
CCOC(=O)N1N=C(c2ccc(F)cc2)CC1(O)C(F)(F)F (centres unmarked) [CBK027156]	111%
CCCCCC1=NN(C(=O)c2ccccc2Br)C(O)(C(F)(F)F)C1 (centres unmarked) [CBK027223]	104%
C1=CC2CC1CC2CN1CCN(Cc2cccnc2)CC1 (centres unmarked) [CBK027284]	100%
COc1nc(NCCN2CCOCC2)nc(Nc2ccccc2)n1 [CBK027298]	102%
CC1=CC(C)C(C(=O)O)C(C(=O)N2CCN(C)CC2)C1 (centres unmarked) [CBK027311G]	97.7%
CC(=O)Nc1nnn(CCOc2nonc2C)n1 [CBK027320]	90.2%
COc1ccc(CN2CCOCC2)cc1Br [CBK027346]	80.8%
CCC1(C)CC(C(CCN)c2ccc(C)cc2)CCO1 (centres unmarked) [CBK027350]	98.8%
CCCCC1CCC(c2noc(-c3ccc(F)cc3)n2)CC1 (centres unmarked) [CBK027363]	90.3%
Cc1cc(Nc2ccc(I)cc2)n2ncnc2n1 [CBK027364]	100%
OCCN1CCN(CC(O)COCC2COc3ccccc3O2)CC1 (centres unmarked) [CBK027374C]	97.3%
Cn1c(=O)oc2cc(Br)ccc21 [CBK027375]	108%
Cc1cc(=O)n(C)c(=O)n1CCCCCN1CCCC1 [CBK027386]	99.9%
Cc1cc(C)n2c(SCC(=O)O)nnc2n1 [CBK027406]	108%
Clc1nc(NCCN2CCOCC2)nc(N2CCCCCC2)n1 [CBK027412]	98.9%
CC(C)Nc1nc(C#N)nc(NC(C)C)n1 [CBK027421]	84.7%
CCCCC1CCC(C(=O)Nc2ncccn2)CC1 (centres unmarked) [CBK027423]	113%
Clc1ccc(C2NCCS2)c(Cl)c1 (centres unmarked) [CBK027425]	102%
COC(=O)Nc1nc(Cl)cc(Cl)n1 [CBK027433]	93.8%
CN(C)CCCOC(=O)c1cccnc1Cl [CBK027436]	111%

Structure (SMILES)	viability at 28.5 h, 10 µM
Cn1c(=O)c(C(N)=O)c(O)c2ccccc21 [CBK027440]	78.6%
CCOc1ccc(CSC2=NCCN2)cc1Cl [CBK027449C]	92.4%
COc1nc(NCc2ccco2)nc(OC)n1 [CBK027479]	86.4%
CN(CCOC(=O)c1cccs1)C(C)(C)C [CBK027559C]	88.6%
O=C(Nc1ncccn1)C1CCCCC1 [CBK027567]	98.3%
O=C(NCCO)Nc1ccc2nccnc2c1 [CBK027577]	71.5%
CC1(C)CC(=O)C=C(NCC2CCNCC2)C1 [CBK027580]	87.9%
Cc1cc(=O)n(C)c(=O)n1CCCN1CCCCC1 [CBK027584]	115%
CCCCSc1nnc2nc(C)cc(C)n12 [CBK027588]	98.2%
Fc1ccc(-n2cnnn2)cc1 [CBK027592]	110%
O=C(Nn1cnnc1)c1ccccc1F [CBK027603]	106%
Cn1c(=O)c2[nH]c(N3CCCCC3)nc2n(C)c1=O [CBK027630]	86.1%
OCCCNCC(O)CN1c2ccccc2Sc2ccccc21 (centres unmarked) [CBK027632G]	98.4%
[O-][S+]1c2ccccc2Oc2ccccc21 [CBK027634]	94.7%
CCOC(=O)c1c(-n2cnnn2)sc(C)c1C [CBK027660]	93.6%
Clc1cccc(-n2cnnn2)c1Cl [CBK027665]	77.7%
CC(C)Nc1nc(Cl)nc(Nc2ccc(I)cc2)n1 [CBK027685]	97.6%
Nc1nonc1OCCCCOc1nonc1N [CBK027716]	110%
O=c1[nH]c(=O)c2c3c(sc2[nH]1)CCCC3 [CBK027724]	67.6%
CCOC(=O)c1[nH]c(=O)[nH]c1CSc1ccccn1 [CBK027725]	94%
Cc1nnc2nc(-c3ccc(Cl)cc3Cl)[nH]n12 [CBK027731]	88.1%
CC(C)Nc1nc(NC(C)C)nc(N(C)C(N)=O)n1 [CBK027732]	90.2%
CCNc1nc(C#N)nc(Nc2ccccc2)n1 [CBK027733]	86.1%
c1ccc(CSc2nc3ccccc3s2)nc1 [CBK027737]	76.2%
COC(=O)NC(O)C(=O)c1cccs1 (centres unmarked) [CBK027755]	93.8%
COC(=O)NC(O)C(=O)c1ccco1 (centres unmarked) [CBK027757]	94.7%

Structure (SMILES)	viability at 28.5 h, 10 µM
O=c1[nH]nc(SCc2ccccc2Cl)c(=S)[nH]1 [CBK027795]	117%
Cc1cc(=O)n2c(c1C#N)SCC2 [CBK027807]	102%
COCC(C)NCc1ccccc1C (centres unmarked) [CBK027852]	115%
CNCc1cc(Br)ccc1OC [CBK027857]	113%
O=C(c1cc[nH]n1)N1CCOCC1 [CBK027868]	89.2%
CCOc1cc(/C=N/Nc2nncn2N)cc(I)c1O [CBK027879]	93.6%
COC(=O)N/N=C(\C)c1ccc(Br)s1 [CBK027886]	103%
COc1ccc(CCC(=O)Nc2nnc[nH]2)cc1 [CBK027896]	101%
COc1ccc(-c2nc(=S)c3c(n2CCCO)CCCC3)cc1 [CBK027898]	88.7%
Cc1nc2ccccc2c(O)c1CN1CCN(C)CC1 [CBK027922]	119%
NC(=O)c1c(NC(=O)Cn2cnc([N+](=O)[O-])n2)sc2c1CCCC2 [CBK027935]	98.6%
O=C(Nc1nn[nH]n1)C1CCCCC1 [CBK027955]	112%
O=c1nc(O)c2ccccc2s1 [CBK027968]	94.9%
CCOc1ccc(/C=C2\SC(=O)NC2=S)cc1 [CBK027996]	90.9%
CCCc1nnc(SCC(=O)Nc2cccc(C(F)(F)F)c2)n1N [CBK028004]	104%
CC(C)C(c1nnnn1Cc1ccccc1)N1CCOCC1 (centres unmarked) [CBK028054]	117%
Cc1ccc(S(=O)(=O)N(CCC#N)CCN2CCCC2)cc1 [CBK028055]	119%
COc1cccc(CCNCC(O)COc2ncnc3ccccc23)c1 (centres unmarked) [CBK028127T]	93.1%
COc1ccc([C@@]23CCC(NC(=S)NCc4ccccc4)C[C@@H]2N(Cc2ccccc2)CC3)cc1 (some centres unmarked) [CBK028140]	88%
C#CCn1nnc2ccccc21 [CBK028164]	104%
O=S1(=O)NC=Nc2ccccc21 [CBK028171]	112%
O=C(NC(=S)Nn1cnnc1)c1ccccc1 [CBK028188]	125%
FC(F)(F)c1nc2ccccc2[nH]1 [CBK028224]	84.5%
C[S+]([O-])c1nc2ccccc2s1 (centres unmarked) [CBK028233]	93.5%
O=C(Nc1cccc(N2CCNCC2)c1)c1ccccc1 [CBK028255T]	114%
O=C(CCCOc1ccccc1)Nc1cccnc1N1CCNCC1 [CBK028258T]	97.3%
